From patent publication US10124111B2, “Small molecule dye for molecular imaging and photothermal therapy” (The Board of Trustees of the Leland Stanford Junior …, priority 2015, dated 2018) come the findings set out here.

Series [1] can be described thus: Optical characterization (emission spectrum, quantum yield, photostability). The format is physicochemical. The conditions noted are these: 808 nm excitation laser. The source says: The NIR fluorescence spectrum was taken using a home-built NIR spectroscopy setup. The excitation source was a 200-W ozone-free mercury/xenon lamp (Oriel), which was dispersed by a monochromator (Oriel) to generate an excitation line with a bandwidth of 15 nm. The excitation light was allowed to pass through the solution sample in a 1-mm-path cuvette (Starna Cells, Inc.), and the emission was collected in a transmission geometry. The […] was collected in the 790-1500 nm emission range. The emitted light was directed into a spectrometer (Acton SP2300i) equipped with a liquid-nitrogen-cooled InGaAs linear array detector (Princeton OMA-V). Spectra were corrected post-collection to account for the sensitivity of the detector and extinction feature of the filter. Photostability was determined by spiking CH1055-PEG into serum, PBS, and DI and exposing it in a 1-mm path length cuvette (Starna Cells, Inc.) to continuous 808 nm excitation at a power density of 0.3 W/cm^2 and taking images every 10 seconds for ˜1 hour. Stability was determined by measuring the ROI and comparing the fluorescence intensity to the starting fluorescence signal.
In order to further increase solubility, the carboxylic acid groups of CH1055 were PEGylated with 2 kDa PEG-NH2 through EDC/NHS chemistry.

The nature of series [2]: Photoacoustic imaging analysis of phantoms. In kind it is physicochemical. The source says:
For studying the PAI properties of the compound, a cuboid container was half filled with 1% agarose gel to half depth. Different concentrations of compounds aqueous solutions were filled into polyethylene capillaries and then the capillaries were laid on the surface of solidified agarose gel. The capillaries were further covered with thin 1% agarose gel to make the surface smooth. PA spectra and PA/US coregistered images were acquired with a LAZR commercial instrument (VevoLAZR; VisualSonics). It is equipped with a LZ-250 linear array transducer and a tunable Nd:YAG laser system (680-970 nm). In our system, the Vevo LAZR PAI System with a laser at excitation wavelength of 700 nm and a focal depth of 10 mm was used to acquire PA and US images. […] Acquisition rate of 5 frames per second was used for all the experiments. The photoacoustic gain was kept at 42 dB, dynamic range at 18 dB and center frequency of 21 MHz for all studies. US and PA images were obtained sequentially. The PA signals reported were the average pixel intensities from within the Regions of Interest (ROIs). Normalization and quantification of the images were carried out using ImageJ.
Fluorophores with the present design not only have NIR II fluorescence, but also show strong absorption in the NIR-I region and show promise for in vivo photoacoustic imaging. […]

Series [3] can be described thus: Preliminary animal imaging of CH-4T excretion. The format is in vivo. The source says:
It is a small molecule dye similar to ICG, Cy5, and IR800, and enables easier access to NIR-II imaging, as it doesn't require a specialized knowledge of nanomaterials which make up the majority of NIR-II fluorophores.

The next series deals with human and bovine albumin. Nature of the series: Binding of CH-4T to serum proteins. The conditions noted are these: whole blood, HDL. As to the method:
(§1) This fluorescence enhancement produces a serum quantum yield of up to ˜10% which is on par with ICG and is among the highest quantum yields of all NIR-II fluorophores (including carbon nanotubes). While soluble in PBS, the quantum yield of CH-4T was determined to be ˜0.07%, yet is enhanced ˜60× through complexation with serum proteins in FBS.

Series [4] in a line: NIR-II fluorescence brightness and quantum yield in DI, PBS, FBS, serum and serum proteins. The format is physicochemical.
Description: The compound contains a taurine (2-aminoethanesulfonic acid) group at the carboxyl linkers of CH1055. […] Sulfonating the present NIR-II dyes is a general procedure that can be applied to a number of the NIR-II small molecules described above to increase their solubility.
The absorbance value of both fluorophores (OD 0.02) in each respective media is equivalent at the excitation wavelength (808 nm) to compare relative quantum yields. NIR-IIa fluorescent image of a C57 mouse brain (1300 LP) after an intravenous injection of equivalent doses of CH-4T (200 ms exposure; Panel B) and of CH1055-PEG (1 s exposure; Panel D). The image intensity scales have been compensated to account for the differences in the exposure times needed to clearly resolve brain vasculature.
as §1
Increased brightening of CH-4T also results from protein interactions. A fluorescence emission spectrum of CH1055-PEG and CH-4T in both FBS and PBS was determined. […] The increased intensity (40,000 a.u. around 1000 nm) for CH-4T in FBS was observed.
While CH-4T complexed with proteins produces an incredibly bright contrast agent, pretreatment of the proteins prior to complexation and subsequent isolation of the bright dye-protein complexes can introduce a further increase in brightness. For instance, a short 10 minutes of horn sonication of FBS prior to mixing with CH-4T followed by 10 minutes of heating in a hot water bath at ˜80° C. can boost the brightness of the CH-4T-protein complex by ˜3-4-fold. The effects on the fluorescence emission spectrum of heating and pre-horn sonicating can be seen while the brightness difference of an FBS-CH-4T solution before and after treatment (data not shown). […]

A short description of the next series: Aqueous solubility. The format is physicochemical. The conditions noted are these: water / PBS.
Series [5] has as its system shoulder xenograft U87MG tumors. Nature of the series: Lymph node / lymphatic vasculature and tumor imaging after intradermal injection. In kind it is in vivo, immunodeficient nude mice. The conditions noted are these: intradermal injection near base of tail. The source says: An emerging fluorescent imaging application of ICG currently undergoing clinical trials is in detecting sentinel lymph nodes (SLN) for surgical resection.(28-30) Selectively removing sentinel lymph nodes alleviates lymphedema and other ailments that would be caused by total lymph node removal performed to prevent cancer metastasis. Fluorescent imaging has many benefits compared to the more traditional detection means that include injecting a colored dye, a radioisotope, or a combination of both. ICG is typically injected near a tumor to visualize the lymphatic vessels draining the tumor as well as the sentinel lymph nodes. […] Immediately after injection, CH1055-PEG drainage into the internodal collecting lymphatic vasculature and the inguinal lymph node became apparent. […] (data not shown)
The gradual increase in fluorescence emanating from the tumor occurred while all lymphatic vessels and nodes were still visible.

Regarding `O=C(O)CCc1ccc(N(c2ccc(CCC(=O)O)cc2)c2ccc(-c3c4c(c(-c5ccc(N(c6ccc(CCC(=O)O)cc6)c6ccc(CCC(=O)O)cc6)cc5)c5nsnc35)N=S=N4)cc2)cc1` [CH1055], the “peak fluorescent emission wavelength” value in series [1] is roughly 1055 nm. This molecule came in with an NIR-I absorption maximum in series [2] of 700 nm. Also, the “wavelength of maximum photoacoustic signal” value in series [2] (NIR pulsed laser, 680-970 nm scan) was 700 nm.

As to `O=C(CCc1ccc(N(c2ccc(CCC(=O)NCCS(=O)(=O)O)cc2)c2ccc(-c3c4c(c(-c5ccc(N(c6ccc(CCC(=O)NCCS(=O)(=O)O)cc6)c6ccc(CCC(=O)NCCS(=O)(=O)O)cc6)cc5)c5nsnc35)N=S=N4)cc2)cc1)NCCS(=O)(=O)O` [CH-4T], in series [3], the excretion kinetics entry is “resemble that of ICG”. The “binding to serum proteins” value in the series with human and bovine albumin is “strong binding”. The quantum yield was roughly 0.07% in series [4] (in PBS) and roughly 13% in series [4] (with treated FBS (sonicated, heated)). In series [4] (in serum, complexed with serum proteins), this molecule came in with a serum quantum yield of no more than 10%. Moreover, the aqueous solubility result in the series “Aqueous solubility” is listed as “highly soluble”.

On to `CC1(C)C(/C=C/C=C/C=C/C=C2\N(CCCCS(=O)(=O)O)c3ccc4ccccc4c3C2(C)C)=[N+](CCCCS(=O)(=O)[O-])c2ccc3ccccc3c21` [ICG, indocyanine green], for which, in series [5], the “liver signal after intradermal injection” value was “obvious liver signal” and the “tumor fluorescence after intradermal injection” value was “little tumor signal was observed”.
